This is an account of results in patent US5919770A, “Metabolites of ginseng saponins by human intestinal bacteria and its preparation for an anticancer” (Il Hwa Co., Ltd., priority 1996, dated 1999).

Series [1] relates to bovine artery endotheliocyte (BAE). Briefly: Inhibition on the proliferation of bovine artery endotheliocyte (BAE), MTT. As to conditions: for pIC50: Bos taurus, BAE, 72 hours, MTT; for IC50 (C)/IC50 (BAE), C = HL: ratio IC50 (HL)/IC50 (BAE); for IC50 (C)/IC50 (BAE), C = K562: ratio IC50 (K562)/IC50 (BAE). The format is cell-based. How it is done:
(§1) Inhibition on the vascularization of tumor (Test for the inhibition on the proliferation)
(§2) Human lymphocyte (HL), leukemia cell line (K562) and bovine artery endotheliocyte (BAE) were used for this experiment. HL (1×10^5 cells), leukemia cell line (K562) (2×10^5 cells) and BAE (5×10^3 cells) were cultured in a medium (HL, K562: RPMI 1640 medium containg 10% fetal bovine, BAE: DMEM medium containing 10% fetal bovine) containing intestinal flora metabolites of ginseng saponin concentrated with 2-fold dilution in 5% CO2 saturated with steam (HL, K562: 24 hours, BAE: 72 hours). The number of each survived cell was purified by MTT method to calculate 50% inhibition concentration (IC50), impaired rate of cells (IC50 (HL)/IC50 (BAE) and IC50 (K562)/IC50 (BAE).

A further series relates to Human lymphocyte (HL). Briefly: Inhibition on the proliferation of human lymphocyte (HL), MTT. The format is cell-based. As to conditions: 24 hours. How it is done:
as §1, §2

Series [2] deals with Human adenosarcoma tissue cell (HT1080). In words: Inhibition on the extravasation of basement membrane (haptoinvasion, matrigel/FN filter). The following applies: for pIC50 / inhibition at 10 µM / inhibition at 100 µM / inhibition at 1000 µM / inhibition at 1 µM: Homo sapiens; for pIC50: HT-1080, 4 h, 50% inhibition of extravasation, read-out: ED50 (50% extravasation-inhibitory concentration); for inhibition at 10 µM / inhibition at 100 µM / inhibition at 1000 µM / inhibition at 1 µM: HT-1080, read-out: Inhibition rate (%). The format is cell-based. On the procedure:
Inhibition on the extravasation of basement membrane
The transwell culture chamber was used for this experiment with a haptoinvasion method (reference: Cancer Res., 47, 3239, (1987)). The lower side of a filter having a hole of 8.0 μm in diameter was coated with 5 μg of matrigel for the fabrication of matrigel/FN filter. Human […] tissue cell (HT1080), treated in the intestinal flora metabolite of ginseng saponin in a concentration of 1-1000 μM at 37° C. for 30 minutes, was charged to the upper side of each filter with 1×10^5 cells/100 μL. Then, said filters were added to 24-well plate having 600 μL of MEM medium supplemented with 0.1% bovine serum albumin and them cultured for 4-hour cultivation. After completing the cultivation, cells were fixed with methanol and stained with hematoxylin, a tissue staining agent. Following the removal of cells at the upper side with a cotton pole, cells infiltrating into the lower side were counted under microscope.

In series [3] the test system is leukemia cell line (K562). Briefly: Inhibition on the proliferation of leukemia cell line K562, MTT. Type of series: cell-based. As to conditions: for pIC50: Homo sapiens, K562, 24 hours, MTT; for inhibitory activities on the proliferation of tumor cells: in words. How it is done:
as §1, §2

The test system of series [4] is bovine artery endotheliocyte (BAE). Briefly: Inhibition on the migration of bovine artery endotheliocyte (vascularization of tumor). As to conditions: for Migration-inhibition (% control), IC10: at the 10% inhibitory concentration (IC10); for Migration-inhibition (% control), IC10 / Migration-inhibition (% control), IC50: 24 hours; for Migration-inhibition (% control), IC50: at the 50% inhibitory concentration (IC50). Type of series: cell-based. How it is done: Inhibition on the vascularization of tumor (Test for the inhibition on the migration)
Bovine artery endotheliocyte (BAE) was used for this experiment. BAE (5×10^3 cells) was cultured in 6-well plate for 24 hours and cells attached to the plate were detached by a razor. Said medium was replaced by a new one and after one hour, a solution of intestinal flora metabolite of ginseng saponin was added to the desired inhibitory concentration of 10% and 50%, respectively for 24-hour cultivation. After completing the cultivation, cells were fixed with methanol, stained with Giemsa method and counted the cells migrated from the detached line under microscope.

Series [5] concerns leukemia cell line (P388). Briefly: Antitumor activity of mouse spleen lymphocytes on leukemia cell line P388 (MTT). The format is cell-based, mice. The following applies: for activity at 2.5 µM: P388, 2.5 μM for 16 hours (Compound K 1.56, Compound Y 1.86, Ginsenoside Mc 1.86, 20(S)-protopanaxatriol 1.19 μg/ml), control 31.3%; for fold induction at 2.5 µM: P388, 16 h, read-out: Antitumor activity, times as high as control. How it is done: Antitumor activity on leukemia cell line (P388) in lymphocyte of mice
Spleen lymphocytes of mice and leukemia cell line (P388) were used for this experiment. Spleen lymphocytes (4×10^6 cells) and leukemia cells (P388) (2×10^8 cells) were cultured in a medium (RPMI 1640 supplemented with 20 μM mercaptoethanol and 10% fetal bovine serum) containing intestinal flora metabolite of ginseng saponin (2.5 μM) in 5% CO2 saturated with steam for 16 hours. Aside from this, same numbers of spleen lymphocytes or leukemia cell line were cultured in a medium containing intestinal flora metabolite of ginseng saponin in same is concentration as a control. The number of each survived cell was purified by MTT method to calculate impaired rate of cells on leukemia cells (P388) of lymphocytes.

Series [6] in a line: Toxicity in animal experiments with rats and mice.
For the next series, the system named is cancer cells. The following applies: Japanese Patent No. 93-9123, Sato et al. 1994; cited from earlier work.

pIC50: −log10 of the molar value.

What is called inhibition is the drop in the measured response relative to a control, in per cent. With `CC(C)=CCC[C@](C)(O)[C@H]1CC[C@]2(C)[C@@H]1[C@H](O)C[C@@H]1[C@@]3(C)CC[C@H](O)C(C)(C)[C@@H]3[C@@H](O)C[C@]12C` [20(S)-protopanaxatriol], in series [1], the pIC50 was 4.44; the “IC50 (C)/IC50 (BAE), C = HL” value is given as 7.8; the “IC50 (C)/IC50 (BAE), C = K562” value is 1.4. In the series with Human lymphocyte (HL), the pIC50 was 3.55. Further, the “No. of infiltrated cancer cell/field” value in series [2] (1 μM) is on record as 103 ± 14 cell/field. In series [2] (10 μM), the “No. of infiltrated cancer cell/field” value stood at 93 ± 7 cell/field and the inhibition at 10 µM was determined as 4%. Besides, in series [2] (100 μM), the “No. of infiltrated cancer cell/field” value was 18 ± 4 cell/field and the inhibition at 100 µM came out at 81%. In series [2] (1000 μM), the “No. of infiltrated cancer cell/field” value came to 1 ± 1 cell/field and the inhibition at 1000 µM worked out at 99%. Further, the pIC50 in series [2] is 4.32. In series [3], the pIC50 is 4.31 and the “inhibitory activities on the proliferation of tumor cells” value was “exhibited inhibitory activities on the proliferation of tumor cells”. In addition, in series [4], the “Migration-inhibition (% control), IC10” value was -1.6 % control and the “Migration-inhibition (% control), IC50” value is given as 30.0 % control. Further, in series [5], the activity at 2.5 µM is 82.4% and the fold induction at 2.5 µM stood at 2.

Consider `CC(C)=CCC[C@](C)(O[C@@H]1O[C@H](CO)[C@@H](O)[C@H](O)[C@H]1O)[C@H]1CC[C@]2(C)[C@@H]1[C@H](O)C[C@@H]1[C@@]3(C)CC[C@H](O)C(C)(C)[C@@H]3CC[C@]12C` [Compound K], for which, in series [1], the pIC50 is 4.55; the “IC50 (C)/IC50 (BAE), C = HL” value was 1.7; the “IC50 (C)/IC50 (BAE), C = K562” value was 1.6. In the series on Human lymphocyte (HL), this compound gave a pIC50 of 4.35. In series [2] (1 μM), the “No. of infiltrated cancer cell/field” value was 73 ± 4 cell/field and the inhibition at 1 µM came out at 38%. In addition, in series [2] (10 μM), the “No. of infiltrated cancer cell/field” value stood at 45 ± 9 cell/field and the inhibition at 10 µM was determined as 62%. In addition, in series [2] (100 μM), the “No. of infiltrated cancer cell/field” value worked out at 0 cell/field and the inhibition at 100 µM came out at 100%. For the same compound, in series [2], the pIC50 was 5.49. This compound also showed a pIC50 in series [3] of 4.59. Besides, in series [4], the “Migration-inhibition (% control), IC10” value is 4.6 % control and the “Migration-inhibition (% control), IC50” value is on record as 43.2 % control. Further, the “inhibitory activity of migration” value in series [4] (in words, control Suramin) is “more potent inhibitory activity of migration than Suramin”. For the same compound, in series [5], the activity at 2.5 µM amounted to 51.5% and the fold induction at 2.5 µM was 1.6.

Turning to `CC(C)=CCC[C@](C)(O[C@@H]1O[C@H](CO[C@@H]2OC[C@H](O)[C@H](O)[C@H]2O)[C@@H](O)[C@H](O)[C@H]1O)[C@H]1CC[C@]2(C)[C@@H]1[C@H](O)C[C@@H]1[C@@]3(C)CC[C@H](O)C(C)(C)[C@@H]3CC[C@]12C` [Compound Y, 20-0-[α-L-arabinopyranosyl (1→6)-β-D-glucopyranosyl]-20(S)-protopanaxadiol], in series [1], the pIC50 was 4.49; the “IC50 (C)/IC50 (BAE), C = HL” value was 2.6; the “IC50 (C)/IC50 (BAE), C = K562” value came out at 2.6. In the series with Human lymphocyte (HL), this compound gave a pIC50 of 4.08. In addition, the “No. of infiltrated cancer cell/field” value in series [2] (1 μM) is reported as 125 ± 7 cell/field. Moreover, in series [2] (10 μM), the “No. of infiltrated cancer cell/field” value was 92 ± 11 cell/field and the inhibition at 10 µM turned out to be 21%. In addition, in series [2] (100 μM), the “No. of infiltrated cancer cell/field” value worked out at 24 ± 2 cell/field and the inhibition at 100 µM stood at 62%. For the same compound, in series [2] (1000 μM), the “No. of infiltrated cancer cell/field” value came to 0 cell/field and the inhibition at 1000 µM is 100%. Further, in series [2], the pIC50 was 4.51. For the same compound, the pIC50 in series [3] was 4.11. Also, in series [4], the “Migration-inhibition (% control), IC10” value is on record as -3.7 % control and the “Migration-inhibition (% control), IC50” value was 28.9 % control. In series [5], the activity at 2.5 µM was 56.6% and the fold induction at 2.5 µM is 1.8.

As to `CC(C)=CCC[C@](C)(O[C@@H]1O[C@H](CO[C@@H]2O[C@@H](CO)[C@H](O)[C@H]2O)[C@@H](O)[C@H](O)[C@H]1O)[C@H]1CC[C@]2(C)[C@@H]1[C@H](O)C[C@@H]1[C@@]3(C)CC[C@H](O)C(C)(C)[C@@H]3CC[C@]12C` [Ginsenoside Mc, 20-0-[α-L-arabinofuranosyl(1→6)-β-D-glucopyranosyl-20(S)-protopanaxadiol]], in series [1], the pIC50 was 4.59; the “IC50 (C)/IC50 (BAE), C = HL” value turned out to be 8.5; the “IC50 (C)/IC50 (BAE), C = K562” value is 18. The pIC50 in the series on Human lymphocyte (HL) was 3.66. In series [2] (1 μM), the “No. of infiltrated cancer cell/field” value is reported as 114 ± 12 cell/field and the inhibition at 1 µM was found to be 3%. In addition, in series [2] (10 μM), the “No. of infiltrated cancer cell/field” value is 44 ± 7 cell/field and the inhibition at 10 µM amounted to 62%. For the same compound, in series [2] (100 μM), the “No. of infiltrated cancer cell/field” value was 3 ± 1 cell/field and the inhibition at 100 µM worked out at 97%. In addition, in series [2] (1000 μM), the “No. of infiltrated cancer cell/field” value stood at 0 cell/field and the inhibition at 1000 µM worked out at 100%. Further, the pIC50 in series [2] was 5.12. For the same compound, in series [3], the pIC50 is 3.32 and the “inhibitory activities on the proliferation of tumor cells” value is given as “exhibited inhibitory activities on the proliferation of tumor cells”. Also, in series [4], the “Migration-inhibition (% control), IC10” value is recorded as -1.6 % control and the “Migration-inhibition (% control), IC50” value was found to be 30.0 % control. Further, in series [5], the activity at 2.5 µM turned out to be 63.3% and the fold induction at 2.5 µM amounted to 2. In addition, the toxicity entry in series [6] was “nearly negligible”.

With `Cc1ccc(C(=O)Nc2ccc(S(=O)(=O)O)c3cc(S(=O)(=O)O)cc(S(=O)(=O)O)c23)cc1NC(=O)c1cccc(NC(=O)Nc2cccc(C(=O)Nc3cc(C(=O)Nc4ccc(S(=O)(=O)O)c5cc(S(=O)(=O)O)cc(S(=O)(=O)O)c45)ccc3C)c2)c1` [Suramin, reference compound], in series [4], the “Migration-inhibition (% control), IC10” value is on record as -3.8 % control and the “Migration-inhibition (% control), IC50” value turned out to be 37.1 % control.

Consider `CC(C)=CCC[C@](C)(O[C@@H]1O[C@H](CO[C@@H]2OC[C@H](O)[C@H](O)[C@H]2O)[C@@H](O)[C@H](O)[C@H]1O)[C@H]1CC[C@]2(C)[C@@H]1[C@H](O)C[C@@H]1[C@@]3(C)CC[C@H](O[C@@H]4O[C@H](CO)[C@@H](O)[C@H](O)[C@H]4O[C@@H]4O[C@H](CO)[C@@H](O)[C@H](O)[C@H]4O)C(C)(C)[C@@H]3CC[C@]12C` [ginsenoside Rb2], for which the “inhibition of vascularization of tumors, extravasation and metastasis of cancer cells” value in the series with cancer cells is “inhibit the vascularization of tumors and extravasation of cancer cells including inhibitory actions on the metastatis of cancer cells”.

Regarding `CC(C)=CCC[C@@](C)(O)[C@H]1CC[C@]2(C)[C@@H]1[C@H](O)C[C@@H]1[C@@]3(C)CC[C@H](O[C@@H]4O[C@H](CO)[C@@H](O)[C@H](O)[C@H]4O[C@@H]4O[C@H](CO)[C@@H](O)[C@H](O)[C@H]4O)C(C)(C)[C@@H]3CC[C@]12C` [ginsenoside Rg3, 3-0-[β-D-glucopyranosyl(1→2)-β-D-glucopyranosyl]-20(R)-protopanaxadiol], in the series with cancer cells, the “inhibition of vascularization of tumors, extravasation and metastasis of cancer cells” value was “inhibit the vascularization of tumors and extravasation of cancer cells including inhibitory actions on the metastatis of cancer cells”.
